Source: patent publication US20170283408A1, “BENZO-HETEROCYCLIC COMPOUNDS AND THEIR APPLICATIONS” (priority 2014, published 2017)

Legend:
B16F10 lung metastases [1] = experiment: B16F10 lung metastasis model in NOD/SCID mice; type: in vivo; conditions: 2 mg/kg, day 14, n=5/group
Method: (§1) NOD/SCID (n=5/group) mice were injected i.v. with 2×10^5 of the B16F10 tumor cells. Two mg/kg of ML-A1-B, ML-A1-C, or with DMSO vehicle control were used. The animals were killed on day 14 and tumor nodules in the lungs were counted. Data are presented as the number of each individual mouse and the mean of each group. Representative photographs of the lung of each group are also shown (left).
(§2) C57BL/6 mice (6 to 8 weeks old) and NOD/SCID mice (6 to 8 weeks old) were purchased from the National Laboratory Animal Center (Taipei, Taiwan). All animal experiments were performed under specific pathogen-free conditions and in accordance with guidelines approved by the Animal Care and Usage Committee of Mackay memorial hospital (Taipei, Taiwan).
To generate lung metastases, mice were injected intravenously with 2×10^5 B16F10 cells, a dose consistently yielding lung metastases in 100% of animals. 2 mg/kg compounds and 5% DMSO vehicle control were given ip daily to test the effect of compounds on tumor metastatsis. The amount of tumor seeding was counted as total numbers of black nodules presented in the lungs under microscopy. […]

B16F10 lung metastases [2] = experiment: B16F10 lung metastasis model in C57BL/6 mice; type: in vivo; conditions: 2 mg/kg ip daily, day 14, n=11/group
Method: as §1, with “C57BL/6 (n=11/group)” for “NOD/SCID (n=5/group)”
as §2
To generate lung metastases, mice were injected intravenously with 2×10^5 B16F10 cells, a dose consistently yielding lung metastases in 100% of animals. 2 mg/kg compounds and 5% DMSO vehicle control were given ip daily to test the effect of compounds on tumor metastatsis. The amount of tumor seeding was counted as total numbers of black nodules presented in the lungs under microscopy.
To examine the therapeutic effect of ML-A1-B and ML-A1-C against pre-established B16F10 lung metastases, mice were iv injected with 2×10^5 B16F10 tumor cells and treated with, per mouse, 2 mg/kg of ML-A1-B, ML-A1-C, or with DMSO vehicle control.

B16F10 lung metastases [3] = experiment: Compounds and anti-PD-1 antibody combination therapy in B16F10 lung metastasis model (survival); type: in vivo, C57BL/6 mice; conditions: compound 2 mg/kg daily combined with anti-PD-1 (J43) 5 mg/kg every 3-4 days; C57BL/6
Method: C57BL/6 mice were injected iv with 2×10^5 B16F10 cells on Day0. On Day1, mice were injected ip with either control hamster Ig (CTRL IgG) or hamster anti-mouse-PD-1 (J43) at 5 mg/kg every 3-4 days. For combination therapies, mice were daily injected with 2 mg/kg of ML-C19-A or ML-A1-C combined with anti-mouse PD-1 (5 mg/kg) every 3-4 days. Long-term of survival of treated mice in each of the experimental groups were observed.
To examine whether combination of ML-C19-A or ML-A1-C with anti-PD-1 antibody would prolong mice survival in B16F10 lung metastasis model, mice were injected ip with compounds and anti-PD-1 antibody.

human PBMCs = experiment: MTS cytotoxicity assay, human PBMCs; type: cell-based
Method: (§3) The B16F10 and human PBMCs were incubated in the presence of various concentrations of ML-A1-B and ML-A1-C compounds for 1 day. The cell cytotoxicity was monitored through MTS assay. Optical density of DMSO control groups was taken as 100% of cell viability. Values are presented as the mean±SEM from 3 independent experiments.
(§4) 5×10^3 of B16F10 cells were seeded into 96-well plates and treated with the following: DMSO control, various concentrations of naphthalimide derived compounds for 2 day. For the MTS assay (Promega), 40 ul of the MTS reagent was added into each well. Cells were incubated at 37° C. for 4 hr. The absorbance was detected at OD490 nm.
(§5) The cytotoxicity of various concentrations of ML-A1-B and ML-A1-C against murine B16F10 melanoma cells and human PBMCs were examined by MTS assay. […] Therapeutic index by MTS assay is about 5.62.

PD-L1 [4] = experiment: PD-L1 level in LPS-primed monocyte model (flow cytometry); type: cell-based, human; conditions: for expression level of PD-L1 in LPS-primed monocytes, of that of the control: compound at 10 μM, LPS 100 ng/mL, relative to control
Text: (§6) White blood cells of test subjects including healthy volunteers recruited from the Taiwan Blood Service Foundation (Taipei, Taiwan) and septic patients were obtained with written informed consents. Human monocytes were then isolated in accordance with procedures described previously (Chen I H et al., Cancer Immunol Immunother (2010) 59, 323-334). Briefly, peripheral blood mononuclear cells (PBMCs) were isolated using Ficoll-Paque Plus (GE Healthcare) gradient centrifugation. The monocytes were further purified by conducting CD14 selection using CD14 MACS microbeads (Miltenyi Biotec). The purity of monocytes confirmed using flow cytometry analysis was approximately 90%. Monocytes were incubated with endotoxin LPS (100 ng/ml) for 72 hours. At the indicated time point, the cells were harvested and the PD-L1 and HLA-DR molecules were analyzed using flow cytometry. Murine B16F10 cell lines maintained in Dulbecco's modified Eagle's medium (DMEM), 10% heat-inactivated fetal calf serum, 2 mM L-glutamine, penicillin (100 U/ml), and streptomycin (100 μg/ml) at 37 C in a 5% CO2 humidified atmosphere.
(§7) To analyze the surface phenotype of the monocytes, the cells were incubated for 30 minutes on ice in the dark with the following mAbs diluted in phosphate-buffered saline (PBS) containing 1% BSA: PD-L1-FITC, HLA-DR-PE, CD14-PerCP (BD Biosciences). Monocytes were gated based on their FSC/SSC properties. Fluorescence was detected using FACS Calibur, and data analysis was performed using FCS Express version 3 (De Novo Software).
In this example, an LPS-primed monocyte model was established and then used to evaluate the function of the compound of example 1. Specifically, monocytes isolated from healthy subjects according to procedures described in the “Materials and methods” section were incubated with LPS (100 ng/mL) for 72 hours, then respective levels of PD-L1 and HLA-DR were determined. Results are illustrated in FIG. 2.
The effects of the compounds of example 1 were tested in the LPS-primed monocyte model of example 3.1, in which various concentrations of ML-C19-A, ML-C19-B, ML-A1-B, and ML-A1-C were incubated with LPS-primed monocytes of example 3.1; results are illustrated in FIGS. 3 and 4.

[5] = In vivo toxic study (body weight); conditions: 20 mg/kg ip daily; C57BL/6
Method: C57BL/6 mice were ip injected daily with 20 mg/kg of ML-A1-B, or ML-A1-C, or 5% DMSO vehicle control, and their body weight were measured on the indicated days.
To investigate toxicity of ML-A1-B and ML-A1-C, mice were injected ip daily with 20 mg/kg of ML-A1-B or ML-A1-C or 5% DMSO vehicle control.

[6] = system: murine B16F10 melanoma cells; experiment: MTS cytotoxicity assay, B16F10; type: cell-based; conditions: Mus musculus, B16-F10, B16F10; FIG. 6; read-out: IC50 (MTS assay), B16F10 melanoma cell line
Method: as §3, §4, §5

PD-L1 [7] = experiment: PD-L1 expression on IFN-γ stimulated B16F10 cells (flow cytometry); type: cell-based, murine; conditions: various concentrations, 1 day; FIG. 5
Method: as §6, with “IFN-γ stimulated-monocytes were incubated in the presence of either a DMSO vehicle control, ML-A1-B or ML-A1-C for 1 day. Treated cells were harvested and the PD-L1 molecules were analyzed using flow cytometry. Surface molecule expression is presented as the MFI relative to each day that the cells were treated with the DMSO vehicle control medium. Values are presented as the mean±SEM from 3 independent experiments. White” for “White”, “Murine B16F10 cell lines maintained in Dulbecco's modified Eagle's medium (DMEM), 10% heat-inactivated fetal calf serum, 2 mM L-glutamine, penicillin (100 U/ml), and streptomycin (100 μg/ml) at 37 C in a 5% CO2 humidified atmosphere.” left out

HLA-DR = HLA-DR level in LPS-primed monocyte model (flow cytometry); type: cell-based, human; conditions: LPS-primed monocytes; FIG. 3
Text: as §6, §7
In this example, an LPS-primed monocyte model was established and then used to evaluate the function of the compound of example 1. Specifically, monocytes isolated from healthy subjects according to procedures described in the “Materials and methods” section were incubated with LPS (100 ng/mL) for 72 hours, then respective levels of PD-L1 and HLA-DR were determined. Results are illustrated in FIG. 2. […]

| Compound | lung metastasis in immune deficient NOD/SCID mice (B16F10 lung metastases [1]) | number of lung metastases (lung nodules), mean (B16F10 lung metastases [2]) | number of lung metastases (lung nodules), range (B16F10 lung metastases [2]) | overall survival (B16F10 lung metastases [3]) | IC50 (human PBMCs; Homo sapiens, PBMC, human PBMCs, FIG. 6) | Therapeutic index by MTS assay (human PBMCs; ratio of PBMC IC50 to B16F10 IC50) | expression level of PD-L1 in LPS-primed monocytes, of that of the control (PD-L1 [4]) | body weight of the mice [5] | visible sign of toxicity [5] | IC50 [6] | PD-L1 on IFN-γ stimulated murine B16F10 melanoma cell line (PD-L1 [7]) | levels of HLA-DR expression (HLA-DR) | reduction in PD-L1 level as compared with that of the control (PD-L1 [4]; LPS-primed monocytes, FIG. 3) |
| --- | --- | --- | --- | --- | --- | --- | --- | --- | --- | --- | --- | --- | --- |
| CN(C)CCN1C(=O)c2cccc3c(-c4nc5ccccc5s4)ccc(c23)C1=O [ML-A1-C, 6-(Benzo[d]thiazol-2-yl)-2-(2-(dimethylamino)ethyl)-1H-benzo[de]isoquinoline-1,3(2H)-dione] | failed to inhibit lung metastasis | 30 | 3-59 | an increase in overall survival | 48.3 ± 0.14 µM | about 5.62 | ~50.8% | do not significantly reduce the body weight | no visible sign of toxicity | 7.8 ± 0.05 µM | significantly suppresses PD-L1 | capable of altering the levels of HLA-DR expression | – |
| CN(C)CCN1C(=O)c2cccc3c(-c4nc5ccccc5o4)ccc(c23)C1=O [ML-A1-B, 6-(Benzo[d]oxazol-2-yl)-2-(2-(dimethylamino)ethyl)-1H-benzo[de]isoquinoline-1,3(2H)-dione] | failed to inhibit lung metastasis | 41 | 2-90 | – | – | – | ~9.4% | do not significantly reduce the body weight | no visible sign of toxicity | – | significantly suppresses PD-L1 | capable of altering the levels of HLA-DR expression | – |
| NS(=O)(=O)c1ccc(N2C(=O)c3cccc4cccc(c34)C2=O)cc1 [ML-C19-A] | – | – | – | an increase in overall survival | – | – | about 37.5% | – | – | – | – | – | – |
| NS(=O)(=O)c1ccc(N2C(=O)c3cccc4c(Br)ccc(c34)C2=O)cc1 [ML-C19-B, 4-(6-bromo-1,3-dioxo-1H-benzo[de]isoquinolin-2(3H)-yl)benzene-sulfonamide] | – | – | – | – | – | – | – | – | – | – | – | capable of altering the levels of HLA-DR expression | 20% |
